Measurements: the COVID Moonshot data (paper PMC7615835)
Where “and” joins values, the source holds several entries; their conditions need not be identical. Equal entries are not always repeated.

Molecular target: SARS-CoV-2 Main Protease (SARS-CoV-2) (UniProt P0DTD1)

| Structure (SMILES) | IC50 |
| --- | --- |
| CC(=O)c1ccc(N(C(=O)c2ccco2)C(C(=O)NCCc2cccc(F)c2)c2cccnc2)cc1 (stereo not given) | 56.3 µM |
| COCc1nc(C)c(C(=O)N(c2ccc(C(C)(C)C)cc2)C(C(=O)NCCc2cccc(F)c2)c2cccnc2)s1 (stereo not given) | > 99.5 µM |
| COC1CN(S(=O)(=O)N2Cc3ccc(Cl)cc3C3(CCN(c4cncc5ccccc45)C3=O)C2)C1 (stereo not given) | 0.224 µM |
| O=C(Cc1cc(Cl)cc(Nc2ccc(F)nc2Br)c1)Nc1cncc2ccccc12 | 1.86 µM |
| O=C(Cc1cccc(Cl)c1)N1Cc2ccccc2C(O)C1 (stereo not given) | 14.8 µM |
| O=C(CCl)N1CCCN(S(=O)(=O)c2cc(F)ccc2F)CC1 | 12.1 µM |
| Cc1nc(CN2Cc3ccc(Cl)cc3C(C(=O)Nc3cncc4ccc(F)cc34)C2)cs1 (stereo not given) | 1.12 µM |
| CN1CCN(c2ccccc2Nc2cc(Cl)cc(CC(=O)Nc3cncc4ccccc34)c2)CC1 | 2.09 µM |
| COCCN1CCc2ccc(Cl)cc2C1C(=O)Nc1cncc2ccccc12 (stereo not given) | 1.88 µM |
| CC(C)Cn1cc(NC(=O)NCc2ccco2)c2ccccc2c1=O | 29.6 µM |
| CS(=O)(=O)c1ccc2c(NC(=O)C3CCOc4ccc(Cl)cc43)cncc2c1 (stereo not given) | 0.427 µM |
| COc1cc(OC)[n+](C)c(C#N)n1 | > 99.5 µM |
| C=CC(=O)N(c1ccc(C(C)(C)C)cc1)C(C(=O)NCCc1cccc(F)c1)c1cncc(C)c1 (stereo not given) | 11.6 µM |
| O=C(Nc1cncc2ccccc12)C1CN(S(=O)(=O)CC2CC2(F)F)Cc2ccc(Cl)cc21 (stereo not given) | 0.159 µM |
| O=C(Cc1cc(Cl)cc(Nc2nc(-c3ccc(Cl)c(Cl)c3)cs2)c1)Nc1cncc2ccccc12 | 2.46 µM |
| COc1cc(Br)ccc1Nc1cc(Cl)cc(CC(=O)Nc2cncc3ccccc23)c1 | 1.39 µM |
| CC(=O)Nc1ccc2c(NC(=O)Cc3cccc(Cl)c3)cncc2c1 | 0.392 µM |
| CN(C)C(=O)COCC(=O)NC(C(=O)Nc1cncc2ccccc12)c1cccc(Cl)c1 (stereo not given) | 5.41 µM |
| O=C(NCCc1cccc(F)c1)C(c1cccnc1)N(C(=O)c1ccco1)c1cccc(CSC2CCOCC2)c1 (stereo not given) | > 99.5 µM |
| CS(=O)(=O)CC1(C(=O)Nc2cncc3ccccc23)CCOc2ccc(Cl)cc21 (stereo not given) | 15.6 µM |
| Cc1nc2cc(NC(=O)Cn3cnc4c(cnn4C)c3=O)ccc2o1 | > 99.5 µM |
| C=CC(=O)N(c1ccc(C(C)(C)C)cc1)C(C(=O)NCCc1cccc(F)c1)c1cncc(Cl)c1 (stereo not given) | 11.5 µM |
| O=C(Nc1cncc2ccccc12)C(NCC1CC1)c1ccc(Cl)c(Cl)c1 (stereo not given) | 1.75 µM |
| CC(C)(C)c1ccc(N(C(=O)c2cnsn2)C(C(=O)NCCc2cccc(F)c2)c2cccnc2)cc1 (stereo not given) | 13.2 µM |
| CNC(=O)C(C)(C)N1CC(C(=O)Nc2cncc3ccccc23)c2cc(Cl)ccc2C1=O (stereo not given) | 1.02 µM |

| Structure (SMILES) | IC50 |
| --- | --- |
| O=C(Cc1cc(Cl)cc(Nc2cc(F)c(F)cc2Br)c1)Nc1cncc2ccccc12 | 2.16 µM |
| N#Cc1nccc(Cl)n1 | > 99.5 µM |
| CCNC(=O)CN1CC(C(=O)Nc2cncc3cc(S(C)(=O)=O)ccc23)c2cc(Cl)ccc2C1=O (stereo not given) | 0.0675 µM and 0.134 µM |
| O=C(Cc1cc(Cl)cc(N2CCN(c3ccccc3[N+](=O)[O-])CC2)c1)Nc1cncc2ccccc12 | 4.01 µM |
| Cn1c(=O)[nH]c(=O)c2ccc(C(=O)N(c3ccc(C(C)(C)C)cc3)C(C(=O)NCCc3cccc(F)c3)c3cccnc3)nc21 (stereo not given) | > 99.5 µM |
| O=C(Cc1cc(Cl)cc(Nc2ccncc2I)c1)Nc1cncc2ccccc12 | 1.68 µM |
| Cc1nc2ccc(N(C(=O)c3cnc[nH]3)C(C(=O)NCCc3cccc(F)c3)c3cccnc3)cc2o1 (stereo not given) | > 99 µM |
| C=CC(=O)N(c1ccc(C(C)(C)C)cc1)C(C(=O)NCCc1cccc(F)c1)c1cncc(C#N)c1 (stereo not given) | 7.48 µM |
| CC(C)(C)c1ccc(N(C(=O)c2nnn[nH]2)C(C(=O)NCCc2cccc(F)c2)c2cccnc2)cc1 (stereo not given) | > 99.5 µM |
| O=c1oc(Nc2ccccc2)nc2ccccc12 | 1.57 µM |
| NC(=O)c1ccncc1NC(=O)Cc1cccc(Cl)c1 | > 99.5 µM |
| CC(C)(C#N)CS(=O)(=O)N1Cc2ccc(Cl)cc2[C@@H](C(=O)Nc2cncc3ccccc23)C1 (stereo in doubt) | 13.2 µM |
| Cc1ccc(Br)nc1C(=O)NC(C)c1nnc2c(=O)[nH]ccn12 (stereo not given) | > 99.5 µM |
| Cc1ccc2ncc(NC(=O)Cc3cccc(Cl)c3)n2c1 | 9.01 µM |
| COc1ccc(-c2ccccc2S(=O)(=O)N2CCN(C(=O)CCl)CC2)cc1 | 0.551 µM |
| O=C(/C=C/c1ccccc1)N1CCN(S(=O)(=O)c2cccc(F)c2)CC1 | > 99.5 µM |
| CC(=O)NC(C)c1cc(Cl)cc(-c2ccc(S(N)(=O)=O)cc2)c1 (stereo not given) | > 99.5 µM |
| COc1ccc(Cl)c(Nc2cc(Cl)cc(CC(=O)Nc3cncc4ccccc34)c2)c1 | 1.7 µM |
| CC(=O)C(=O)N1CCN(Cc2cccc(Cl)c2)CC1 | > 99.5 µM |
| Cc1c(Cl)cc(S(=O)(=O)N2CC=C(c3c[nH]c4ncccc34)CC2)cc1[N+](=O)[O-] | > 99.5 µM |
| O=CNc1ccc(C(=O)NC(c2ccccc2)C2CCOCC2)cc1 (stereo not given) | > 99.5 µM |
| Cn1nncc1C(=O)N1Cc2ccc(Cl)cc2C(C(=O)Nc2cncc3ccccc23)C1 (stereo not given) | 0.397 µM |
| CCCCOc1ccc(Cl)cc1CC(=O)Nc1cnccc1C | 24.8 µM |
| CCCC(C(=O)Nc1cnccc1C)c1cccc(Cl)c1 (stereo not given) | 17.9 µM and 16.8 µM |
| O=C(CCl)N1CCN(Cc2cccc3ccccc23)CC1 | 5.76 µM |

| Structure (SMILES) | IC50 |
| --- | --- |
| O=C(Cc1cc(Cl)cc(Nc2ccc(F)cc2Br)c1)Nc1cncc2ccccc12 | 2.04 µM |
| COCCN1CC(C(=O)Nc2cncc3ccccc23)c2cc(Cl)ccc2C1=O (stereo not given) | 0.267 µM |
| O=C(c1cc(=O)[nH]c2ccccc12)N1CCN(c2ccc(F)cc2)CC1 | 16.5 µM |
| O=C(Cc1cccc(Cl)c1)NC1CC(=O)c2ccccc21 (stereo not given) | 53.8 µM |
| C=CC(=O)N(c1ccc(C(C)(C)C)cc1)C(C(=O)NCc1cccnc1)c1cccnc1 (stereo not given) | 49.9 µM |
| Cc1cccc(C2CN(C(=O)CCl)Cc3ccccc32)c1 (stereo not given) | 2 µM |
| O=C(Cc1cc(Cl)cc(CC2CC(=O)N2)c1)Nc1cncc2ccccc12 (stereo not given) | 4.57 µM |
| CC(C)(C)NC(=O)CN1CC(C(=O)Nc2cncc3ccccc23)c2cc(Cl)ccc2C1=O (stereo not given) | 0.523 µM |
| N#CC1CN(S(=O)(=O)N2Cc3ccc(Cl)cc3C3(CCN(c4cncc5ccccc45)C3=O)C2)C1 (stereo not given) | 0.181 µM |
| COc1ccc2cncc(NC(=O)[C@@]3(OC)CCOc4ccc(Cl)cc43)c2c1 (stereo in doubt) | 4.18 µM |
| O=C(Cc1ccc(Cl)c(Cl)c1)Nc1cncc2ccncc12 | 1.79 µM |
| Cc1noc(COc2cc(Cl)cc(CC(=O)Nc3cnccc3C)c2)n1 | 23.9 µM |
| O=C1CC(c2ccc(N(C(=O)c3cocn3)C(C(=O)NCCc3cccc(F)c3)c3cccnc3)cc2)CC(=O)N1 (stereo not given) | 53.8 µM |
| Cc1ccncc1NC(=O)C(C)c1cccc(Cl)c1 (stereo not given) | 27.2 µM and 25.2 µM |
| O=C(Cc1cc(Cl)cc(N2CCN(c3cccc([N+](=O)[O-])c3)CC2)c1)Nc1cncc2ccccc12 | 2.87 µM |
| COc1ccc([N+](=O)[O-])cc1COC(=O)c1cnc2ccccc2n1 | > 99.5 µM |
| Cn1c(NCc2cn3ccnc3s2)nc2ccccc21 | > 99.5 µM |
| CCOC(=O)[C@H]1CCCN(c2cc(Cl)cc(CC(=O)Nc3cncc4ccccc34)c2)C1 (stereo in doubt) | 2.43 µM |
| CC(C)(C)c1ccc(N(C(=O)c2nccs2)C(C(=O)NCCc2cccc(F)c2)c2cccnc2)cc1 (stereo not given) | 0.8 µM |
| CC1(CS(=O)(=O)N2Cc3ccc(Cl)cc3C3(CCN(c4cncc5cc(S(C)(=O)=O)ccc45)C3=O)C2)CC1 (stereo not given) | 0.155 µM |
| CC(C)(C)c1ccc(N(C(=O)c2cc(=O)[nH]c(=O)[nH]2)C(C(=O)NCCc2cccc(F)c2)c2cccnc2)cc1 (stereo not given) | > 99.5 µM |
| COC1CCC2OCCN(C(=O)c3ccc4nc[nH]c4c3)C2C1 (stereo not given) | > 99.5 µM |
| CS(=O)(=O)c1ccc2cncc(NC(=O)C3CNC(=O)c4c(F)cc(F)cc43)c2c1 (stereo not given) | 3.6 µM |
| C=CC(=O)N(c1cc(C(C)(C)C)on1)C(C(=O)NC(C)(C)C)c1cccnc1 (stereo not given) | > 99 µM |
| COc1c(Cl)cccc1OCCNC(=O)c1cc(=O)[nH]c2ccccc12 | 6.39 µM |

| Structure (SMILES) | IC50 |
| --- | --- |
| O=C(Cc1cc(Cl)cc(Nc2cccc(Br)n2)c1)Nc1cncc2ccccc12 | 1.92 µM |
| Nc1ccc2[nH]c(C(=O)N(C(=O)c3ccco3)C(C(=O)NCCc3cccc(F)c3)c3cccnc3)cc2c1 (stereo not given) | > 99.5 µM |
| CCOC(=O)c1cc(-c2cc(Cl)cc(CC(=O)Nc3cnccc3C)c2)n[nH]1 | > 99.5 µM |
| Nc1ccccc1-c1nc2ccccc2n1-c1cc(Cl)cc(CC(=O)Nc2cncc3ccccc23)c1 | 5.09 µM |
| CC(C)(C)c1ccc(N(C(=O)c2cnc(C(C)(C)CF)o2)C(C(=O)NCCc2cccc(F)c2)c2cccnc2)cc1 (stereo not given) | > 99.5 µM |
| CS(=O)(=O)c1ccccc1C(=O)N1CCC(C2CCNC2)CC1 (stereo not given) | > 99.5 µM |
| CNC(=O)CN1C[C@H](C(=O)Nc2cncc3cc(Cl)ccc23)c2cc(Cl)ccc2C1=O (stereo in doubt) | 0.149 µM |
| O=C(Cc1cccc(C(F)(F)F)c1)Nc1cnccc1C(=O)O | > 99.5 µM |
| Cn1ccc2cc(N(C(=O)c3cnc[nH]3)C(C(=O)NCCc3cccc(F)c3)c3cccnc3)ccc21 (stereo not given) | > 99 µM |
| Cc1cc(NC(=O)Cc2cncnc2)cc(OC2CC(=O)N2)c1 (stereo not given) | 34.6 µM and 34 µM |
| Cc1ccncc1NC(=O)CCc1cccc(F)c1 | 58.5 µM |
| CC(C)(C)c1ccc(N(C(=O)c2cocn2)C(C(=O)NC2CC(F)(F)C2)c2cccnc2)cc1 (stereo not given) | 2.35 µM |
| NS(=O)(=O)NCCNS(=O)(=O)c1ccccc1[N+](=O)[O-] | > 99.5 µM |
| O=C(Cc1cc(Cl)cc(Nc2ncc(F)cc2Br)c1)Nc1cncc2ccccc12 | 1.84 µM |
| O=C(NCc1ccc(Cl)cc1CN1CCN(C(=O)CCl)CC1)[C@@H]1CCCOC1 (stereo in doubt) | 12.1 µM |
| O=C(NCCc1cccc(F)c1)C(c1cccnc1)N(C(=O)c1cnc[nH]1)C1CCN(c2ccccc2)C1 (stereo not given) | > 99 µM |
| CC(C)c1cccc(C(C)C)c1Nc1cc(Cl)cc(CC(=O)Nc2cncc3ccccc23)c1 | 1.82 µM |
| O=C(CCl)N1CCCN(S(=O)(=O)Cc2ccccc2)CC1 | 8.81 µM |
| O=C(Nc1cncc2ccccc12)C1CN(S(=O)(=O)C2COC2)Cc2ccc(Cl)cc21 (stereo not given) | 0.246 µM |
| O=C(Nc1cncc2ccccc12)C1=CCCc2ccc(Cl)cc21 | 0.233 µM |
| O=C(Cc1cc(Cl)cc(N2CCC(C(F)(F)F)CC2)c1)Nc1cncc2ccccc12 | 1.43 µM |
| O=C(NCCc1ccccc1)[C@@H]1CN(C(=O)CCl)CCN1S(=O)(=O)c1ccsc1 (stereo in doubt) | 1.28 µM |
| C[C@@H]1NC(=O)c2ccc(Cl)cc2[C@@H]1C(=O)Nc1cncc2ccccc12 (stereo in doubt) | 0.454 µM |
| Cc1nnc(C2Cc3ccccc3CN2C(=O)CCl)o1 (stereo not given) | 53.5 µM |
| C=CC(=O)N(c1ccc(C(C)(C)C)cc1)[C@@H](C(=O)NCCc1cccc(F)c1)c1cccnc1 (stereo in doubt) | 86.4 µM |
